Test results published in article PMC12748989 (Nature Communications, 2025).
Ends that are not written are not given here.

How the values were obtained:
MCF10A cells = conditions: 24 h
TamR3 cells = conditions: 24 h
MCF7 cells = conditions: 24 h
PBMC = conditions: 12.5 µM

| Compound | IC50 (MCF10A cells) | IC50 (TamR3 cells) | IC50 (MCF7 cells) | Average (percentage cell inhibition), Dmastoparan MDA-MB231 12.5uM (MDA-MB-231 cells) | Average (percentage cell inhibition), Mastoparan PBMC (PBMC) |
| --- | --- | --- | --- | --- | --- |
| LLQWLLKRLKAK-NH2 [peptide 11] | 16 µM | 11.4 µM | 11.5 µM | – | – |
| CC[C@H](C)[C@H](N)C(=O)N[C@@H](CC(N)=O)C(=O)N[C@@H](CC(C)C)C(=O)N[C@@H](CCCCN)C(=O)N[C@@H](C)C(=O)N[C@@H](CC(C)C)C(=O)N[C@@H](C)C(=O)N[C@@H](C)C(=O)N[C@@H](CC(C)C)C(=O)N[C@@H](C)C(=O)N[C@@H](CCCCN)C(=O)N[C@@H](CCCCN)C(=O)N[C@H](C(=O)N[C@@H](CC(C)C)C(N)=O)[C@@H](C)CC [Mastoparan, reference compound] | 16.9 µM | 18.4 µM | 21.8 µM | – | – |
| TLLTAIVKLFLK-NH2 [peptide 57] | 14.9 µM | 18.1 µM | 25 µM | – | – |
| IILKKLLDFILK-NH2 [peptide 29] | 16.8 µM | 14.6 µM | 16.4 µM | – | – |
| CC[C@H](C)[C@H](N)C(=O)N[C@@H](CC(N)=O)C(=O)N[C@@H](CC(C)C)C(=O)N[C@@H](CCCCN)C(=O)N[C@@H](C)C(=O)N[C@@H](CC(C)C)C(=O)N[C@@H](CC(N)=O)C(=O)N[C@@H](C)C(=O)N[C@@H](CC(C)C)C(=O)N[C@@H](C)C(=O)N[C@@H](CCCCN)C(=O)N[C@@H](CCCCN)C(=O)N[C@H](C(=O)N[C@@H](CC(C)C)C(N)=O)[C@@H](C)CC [N7] | – | – | – | 28.8818% | 10.586% |
| CC[C@H](C)[C@H](N)C(=O)N[C@@H](CC(N)=O)C(=O)N[C@@H](CC(C)C)C(=O)N[C@@H](CCCCN)C(=O)N[C@@H](C)C(=O)N[C@@H](CC(C)C)C(=O)N[C@@H](CC(C)C)C(=O)N[C@@H](C)C(=O)N[C@@H](CC(C)C)C(=O)N[C@@H](C)C(=O)N[C@@H](CCCCN)C(=O)N[C@@H](CCCCN)C(=O)N[C@H](C(=O)N[C@@H](CC(C)C)C(N)=O)[C@@H](C)CC [L7] | – | – | – | 74.1173% | 35.4322% |
| CC[C@H](C)[C@H](N)C(=O)N[C@@H](CC(N)=O)C(=O)N[C@@H](CC(C)C)C(=O)N[C@@H](C)C(=O)N[C@@H](C)C(=O)N[C@@H](CC(C)C)C(=O)N[C@@H](C)C(=O)N[C@@H](C)C(=O)N[C@@H](CC(C)C)C(=O)N[C@@H](C)C(=O)N[C@@H](CCCCN)C(=O)N[C@@H](CCCCN)C(=O)N[C@H](C(=O)N[C@@H](CC(C)C)C(N)=O)[C@@H](C)CC [A4] | – | – | – | 36.5883% | 11.5193% |
| CC[C@H](C)[C@H](N)C(=O)N[C@@H](CC(N)=O)C(=O)N[C@@H](CC(C)C)C(=O)N[C@@H](CCCCN)C(=O)N[C@@H](C)C(=O)N[C@@H](Cc1c[nH]cn1)C(=O)N[C@@H](C)C(=O)N[C@@H](C)C(=O)N[C@@H](CC(C)C)C(=O)N[C@@H](C)C(=O)N[C@@H](CCCCN)C(=O)N[C@@H](CCCCN)C(=O)N[C@H](C(=O)N[C@@H](CC(C)C)C(N)=O)[C@@H](C)CC [H6] | – | – | – | 1.275% | -12.6494% |
| CC[C@H](C)[C@H](N)C(=O)N[C@@H](CC(N)=O)C(=O)N[C@@H](CC(C)C)C(=O)N[C@@H](CCCCN)C(=O)N[C@@H](C)C(=O)N[C@@H](CC(C)C)C(=O)N[C@@H](C)C(=O)N[C@@H](C)C(=O)N[C@@H](CC(C)C)C(=O)N[C@@H](C)C(=O)N[C@@H](CCCCN)C(=O)N[C@@H](CCCCN)C(=O)N[C@@H](C)C(=O)N[C@@H](CC(C)C)C(N)=O [A13] | – | – | – | 24.196% | 5.573% |
| CC[C@H](C)[C@H](N)C(=O)N[C@@H](CC(N)=O)C(=O)N[C@@H](CC(C)C)C(=O)N[C@@H](CCCCN)C(=O)N[C@@H](C)C(=O)N[C@@H](CC(C)C)C(=O)N[C@@H](C)C(=O)NCC(=O)N[C@@H](CC(C)C)C(=O)N[C@@H](C)C(=O)N[C@@H](CCCCN)C(=O)N[C@@H](CCCCN)C(=O)N[C@H](C(=O)N[C@@H](CC(C)C)C(N)=O)[C@@H](C)CC [G8] | – | – | – | 28.4057% | 1.421% |
| CC[C@H](C)[C@H](N)C(=O)N[C@@H](CC(N)=O)C(=O)N[C@@H](CC(C)C)C(=O)N[C@@H](CCCCN)C(=O)N[C@@H](C)C(=O)N[C@@H](CC(C)C)C(=O)N[C@@H](C)C(=O)N[C@@H](C)C(=O)N[C@@H](CC(C)C)C(=O)N[C@@H](C)C(=O)N[C@H](C(=O)N[C@@H](CCCCN)C(=O)N[C@H](C(=O)N[C@@H](CC(C)C)C(N)=O)[C@@H](C)CC)C(C)C [V11] | – | – | – | 50.781% | 14.2972% |
| CC[C@H](C)[C@H](N)C(=O)N[C@@H](CC(N)=O)C(=O)N[C@@H](CC(C)C)C(=O)N[C@@H](CCCCN)C(=O)N[C@@H](C)C(=O)N[C@@H](CC(C)C)C(=O)N[C@@H](Cc1ccc(O)cc1)C(=O)N[C@@H](C)C(=O)N[C@@H](CC(C)C)C(=O)N[C@@H](C)C(=O)N[C@@H](CCCCN)C(=O)N[C@@H](CCCCN)C(=O)N[C@H](C(=O)N[C@@H](CC(C)C)C(N)=O)[C@@H](C)CC [Y7] | – | – | – | 74.0703% | 16.9599% |
